The values below come from patent US8748433B2, “β3 adrenergic receptor agonists” (Merck Sharp & Dohme Corp., priority 2010, dated 2014).

Structures are written as SMILES.

T2 sequence (P13945 whole entry): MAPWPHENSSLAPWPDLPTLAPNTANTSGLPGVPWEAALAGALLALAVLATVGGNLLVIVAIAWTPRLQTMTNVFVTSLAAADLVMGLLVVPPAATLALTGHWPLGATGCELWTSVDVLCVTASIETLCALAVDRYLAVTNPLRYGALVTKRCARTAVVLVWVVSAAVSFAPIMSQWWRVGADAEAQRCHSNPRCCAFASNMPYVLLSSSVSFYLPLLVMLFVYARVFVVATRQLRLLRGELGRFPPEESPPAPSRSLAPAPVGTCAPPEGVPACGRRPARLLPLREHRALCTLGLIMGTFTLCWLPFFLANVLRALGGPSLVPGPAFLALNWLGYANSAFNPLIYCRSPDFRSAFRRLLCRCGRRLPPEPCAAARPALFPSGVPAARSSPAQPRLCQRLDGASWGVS

One experiment deals with T1, β3AR (Rattus norvegicus, UniProt P26255).
T1 construct: host or cells: live rats (in vivo, bladder)
T1 sequence (P26255 whole entry): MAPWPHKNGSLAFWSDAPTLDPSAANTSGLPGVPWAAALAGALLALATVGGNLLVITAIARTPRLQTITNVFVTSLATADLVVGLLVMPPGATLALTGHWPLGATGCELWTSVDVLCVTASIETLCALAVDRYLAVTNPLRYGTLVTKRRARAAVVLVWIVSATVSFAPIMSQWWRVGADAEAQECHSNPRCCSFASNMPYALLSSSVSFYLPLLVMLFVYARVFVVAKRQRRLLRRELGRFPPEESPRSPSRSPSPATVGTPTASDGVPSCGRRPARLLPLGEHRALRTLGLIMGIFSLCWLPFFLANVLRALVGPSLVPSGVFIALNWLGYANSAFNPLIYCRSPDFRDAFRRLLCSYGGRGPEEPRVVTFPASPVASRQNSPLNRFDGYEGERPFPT
Experiment: not given
Conditions: rats, intravenous administration, cystometric studies; cited from earlier work.
As for `C[C@H](Cc1ccc2c(c1)OC(C(=O)[O-])(C(=O)[O-])O2)NC[C@H](O)c1cccc(Cl)c1.[Na+].[Na+]` [CL316243], the bladder capacity entry is “increases bladder capacity”, the micturition interval result is “prolongation of micturition interval” and the residual urine volume result is “without increasing residual urine volume”.

The same experiment, now with this note: rats, intravenous administration; cited from earlier work.
As to `C[C@H](Cc1ccc2c(c1)OC(C(=O)[O-])(C(=O)[O-])O2)NC[C@H](O)c1cccc(Cl)c1.[Na+].[Na+]` [CL316243], the bladder pressure result was “reduces bladder pressure”.

The next experiment concerns the target T2, human β3 adrenergic receptor (Homo sapiens, UniProt P13945).
T2 construct: expressed in transfected cells; host or cells: CHO cells, stably transfected
The experiment can be described thus: Functional assay: cAMP production in CHO cells stably transfected with cloned β3-adrenergic receptor (LANCE TR-FRET). Format: cell-based. To be noted: Table 1, read-out: Human β3 agonist functional activity. How it is done:
cAMP production in response to ligand is measured according to Barton, et al. (1991, Agonist-induced desensitization of D2 dopamine receptors in human Y-79 retinoblastoma cells. Mal. Pharmacol. v3229:650-658) modified as follows. cAMP production is measured using a homogenous time-resolved fluorescence resonance energy transfer immunoassay (LANCE™, Perkin Elmer) according to the manufacture's instructions. Chinese hamster ovary (CHO) cells, stably transfected with the cloned β-adrenergic receptor (β1, β2 or β3) are harvested after 3 days of subculturing. Harvesting of cells is done with Enzyme-free Dissociation. Media (Specialty Media). Cells are then counted and resuspended in assay buffer (Hank's Balanced salt solution supplemented with 5 mM HEPES, 0.1% BSA) containing a phosphodiesterase inhibitor (IBMX, 0.6 mM). The reaction is initiated by mixing 6,000 cells in 6 μL with 6 μL Alexa Fluor labeled cAMP antibody (LANCE™ kit) which is then added to an assay well containing 12 μL of compound (diluted in assay buffer to 2× final concentration). The reaction proceeds for 30 min at room temperature and is terminated by the addition of 24 μL detection buffer (LANCE™ kit). The assay plate is then incubated for 1 h at room temperature and time-resolved fluorescence measured on a Perkin Elmer Envision reader or equivalent. The unknown cAMP level is determined by comparing fluorescence levels to a cAMP standard curve.
The non-selective, full agonist β-adrenergic ligand isoproterenol is used at all three receptors to determine maximal stimulation. The human β3 adrenergic receptor (AR) selective ligand (S)—N-[4-[2-[[2-hydroxy-3-(4-hydroxyphenoxy)propyl]amino]ethyl]-phenyl]-4-iodobenzenesulfonamide is used as a control in all assays. Isoproterenol is titrated at a final concentration in the assay of 10^-10 M to 10-5 and the selective ligand (S)—N-[4-[2-[[2-hydroxy-3-(4-hydroxyphenoxy)propyl]amino]ethyl]phenyl]-4-iodobenzenesulfonamide is titrated at the β3 receptor at concentration of 10^-10 M to 10^-5 M. Unknown ligands are titrated at all 3β-adrenergic receptor subtypes at a final concentration in the assay of 10^-10 M to 10^-5 M to determine the EC50. The EC50 is defined as the concentration of compound that gives 50% activation of its own maximum. Data are analyzed using Microsoft Excel and Graphpad Prism or an internally developed data analysis software package.
With `C[C@@H](c1nc2ccc(CC3CC[C@H]([C@H](O)c4ccccc4)N3)cc2[nH]1)n1cccnc1=O` (stereo partly drawn) [Example 1, 1-{(1S)-[6-({(2S,5R)-5-[(R)-Hydroxy(phenyl)methyl]pyrrolidin-2-yl}methyl)-1H-benzimidazol-2-yl]ethyl}pyrimidin-2(1H)-one], the EC50 fell in the range of 11 to 100 nM.

Turning to `CCc1nc2ccccc2n1CCc1nc2ccc(C[C@@H]3CC[C@H]([C@H](O)c4ccccc4)N3)cc2[nH]1` [Example 5], the EC50 lay in the range of 101 to 1000 nM.

Take `OC(c1ccccc1)C1CCC(Cc2ccc3nc(CCCn4cccn4)[nH]c3c2)N1` (centres unmarked) [Example 6]: the EC50 was 101 to 1000 nM.

Turning to `O[C@H](c1ccccc1)[C@H]1CC[C@@H](Cc2ccc3nc(CCn4ncc5ccccc54)[nH]c3c2)N1` [Example 7], the EC50 lay in the range of 11 to 100 nM.

Consider `Cc1nc(Cc2nc3ccc(C[C@@H]4CC[C@H]([C@H](O)c5ccccc5)N4)cc3[nH]2)cs1` [Example 8], for which the EC50 lay within 101 to 1000 nM.

Take `O[C@H](c1ccccc1)[C@H]1CC[C@@H](Cc2ccc3nc(CCn4ccnc4-c4ccccc4)[nH]c3c2)N1` [Example 10]: the EC50 was 101 to 1000 nM.

On to `OC(c1ccccc1)C1CCC(Cc2ccc3nc(CCc4cnn(-c5ccccc5)c4)[nH]c3c2)N1` (centres unmarked) [Example 11], for which the EC50 lay in the range of 101 to 1000 nM.

For `Cc1nn(-c2ccccc2)c(C)c1CCc1nc2ccc(C[C@@H]3CC[C@H]([C@H](O)c4ccccc4)N3)cc2[nH]1` [Example 12], the EC50 is 101 to 1000 nM.

For the compound `OC(c1ccccc1)C1CCC(Cc2ccc3nc(CCn4cnc5ccccc54)[nH]c3c2)N1` (centres unmarked) [Example 13], the EC50 was 101 to 1000 nM.

With `Cc1cc2ncn(CCc3nc4ccc(C[C@@H]5CC[C@H]([C@H](O)c6ccccc6)N5)cc4[nH]3)c2cc1C` [Example 14], the EC50 fell in the range of 101 to 1000 nM.

Consider `O[C@H](c1ccccc1)[C@H]1CC[C@@H](Cc2ccc3nc(CCn4cncn4)[nH]c3c2)N1` [Example 15], for which the EC50 was 101 to 1000 nM.

On to `O[C@H](c1ccccc1)[C@H]1CC[C@@H](Cc2ccc3nc(C4CCc5ccnn54)[nH]c3c2)N1` (some centres unmarked) [Example 16], for which the EC50 lay within 101 to 1000 nM.

`O=C1c2ccccc2C(=O)N1Cc1nc2ccc(C[C@@H]3CC[C@H]([C@H](O)c4ccccc4)N3)cc2[nH]1` [Example 17]: the EC50 lay in the range of 101 to 1000 nM.

Consider `O=c1ccncn1Cc1nc2ccc(C[C@@H]3CC[C@H]([C@H](O)c4ccccc4)N3)cc2[nH]1` [Example 19], for which the EC50 is 101 to 1000 nM.

As for `Cc1nc(Cc2nc3ccc(C[C@@H]4CC[C@H]([C@H](O)c5ccccc5)N4)cc3[nH]2)c(C)s1` [Example 20], the EC50 lay in the range of 101 to 1000 nM.

For the compound `Cc1nc2c(s1)CCC2c1nc2ccc(C[C@@H]3CC[C@H]([C@H](O)c4ccccc4)N3)cc2[nH]1` (some centres unmarked) [Example 21], the EC50 lay in the range of 11 to 100 nM.

Consider `O[C@H](c1ccccc1)[C@H]1CC[C@@H](Cc2ccc3nc(C4CCc5scnc54)[nH]c3c2)N1` (some centres unmarked) [Example 24], for which the EC50 is 11 to 100 nM.

`OC(c1cccnc1)C1CCC(Cc2ccc3nc(C4CCc5scnc54)[nH]c3c2)N1` (centres unmarked) [Example 26]: the EC50 was 101 to 1000 nM.

Consider `CC(c1cscn1)c1nc2ccc(C[C@@H]3CC[C@H]([C@H](O)c4cccnc4)N3)cc2[nH]1` (some centres unmarked) [Example 27], for which the EC50 fell in the range of 101 to 1000 nM.

Turning to `C[C@@H](c1nc2ccc(C[C@@H]3CC[C@H]([C@H](O)c4cccnc4)N3)cc2[nH]1)n1cccnc1=O` [Example 28], the EC50 fell in the range of 101 to 1000 nM.

As to `Cc1nc2c(s1)CCC2c1nc2ccc(C[C@@H]3CC[C@H]([C@H](O)c4cccnc4)N3)cc2[nH]1` (some centres unmarked) [Example 29], the EC50 was in the range of 101 to 1000 nM.

For `O=C1c2ccccc2C(=O)N1Cc1nc2ccc(C[C@@H]3CC[C@H]([C@H](O)c4cccnc4)N3)cc2[nH]1` [Example 31], the EC50 is 101 to 1000 nM.

On to `CS(=O)(=O)c1ccccc1-c1nc2ccc(C[C@@H]3CC[C@H]([C@H](O)c4cccnc4)N3)cc2[nH]1` [Example 32], for which the EC50 was in the range of 11 to 100 nM.

As for `CS(=O)(=O)c1ccc(-c2nc3ccc(C[C@@H]4CC[C@H]([C@H](O)c5cccnc5)N4)cc3[nH]2)cc1` [Example 33], the EC50 was 101 to 1000 nM.

`CS(=O)(=O)c1cccc(-c2nc3ccc(C[C@@H]4CC[C@H]([C@H](O)c5cccnc5)N4)cc3[nH]2)c1` [Example 34]: the EC50 lay in the range of 11 to 100 nM.

For `O=C(O)c1ccccc1-c1nc2ccc(C[C@@H]3CC[C@H]([C@H](O)c4cccnc4)N3)cc2[nH]1` [Example 35], the EC50 lay in the range of 101 to 1000 nM.

For `O=C(O)c1cccc(-c2nc3ccc(C[C@@H]4CC[C@H]([C@H](O)c5cccnc5)N4)cc3[nH]2)c1` [Example 36], the EC50 was in the range of 101 to 1000 nM.

As for `O=C(O)c1ccc(-c2nc3ccc(C[C@@H]4CC[C@H]([C@H](O)c5cccnc5)N4)cc3[nH]2)cc1` [Example 37], the EC50 fell in the range of 11 to 100 nM.

Turning to `O[C@H](c1cccnc1)[C@H]1CC[C@@H](Cc2ccc3nc(-c4c(F)cccc4F)[nH]c3c2)N1` [Example 38], the EC50 is 101 to 1000 nM.

As to `OC(c1cccnc1)C1CCC(Cc2ccc3nc(-c4ccccc4C(F)(F)F)[nH]c3c2)N1` (centres unmarked) [Example 39], the EC50 was 11 to 100 nM.

As to `Oc1cccc(-c2nc3ccc(C[C@@H]4CC[C@H]([C@H](O)c5cccnc5)N4)cc3[nH]2)n1` [Example 40], the EC50 was 1000 to 3000 nM.

Turning to `O[C@H](c1cccnc1)[C@H]1CC[C@@H](Cc2ccc3nc(-c4ccccc4-c4ncc[nH]4)[nH]c3c2)N1` [Example 41], the EC50 lay within 101 to 1000 nM.

Consider `O[C@H](c1cccnc1)[C@H]1CC[C@@H](Cc2ccc3nc(C4CCc5ccnn54)[nH]c3c2)N1` (some centres unmarked) [Example 42], for which the EC50 was in the range of 101 to 1000 nM.

The same experiment, now with this note: Table 2, read-out: Human β3 agonist functional activity.
Regarding `Cc1nc2c(s1)CCC2c1nc2ccc(C[C@@H]3CC[C@H]([C@H](O)c4ccccc4)N3)cc2n1C` (single isomer, unassigned) [Example 43], the EC50 is 1000 to 3000 nM.

Take `Cc1nc2c(s1)CCC2c1nc2ccc(C[C@@H]3CC[C@H]([C@H](O)c4ccccc4)N3)cc2n1C` (single isomer, unassigned) [Example 44]: the EC50 lay in the range of 1000 to 3000 nM.

Staying with this experiment, now noted: Table 3, read-out: Human β3 agonist functional activity.
As to `Cc1nc2c(s1)CCC2c1nc2cc(C[C@@H]3CC[C@H]([C@H](O)c4ccccc4)N3)ccc2n1C` (single isomer, unassigned) [Example 45], the EC50 was in the range of 101 to 1000 nM.

Regarding `Cc1nc2c(s1)CCC2c1nc2cc(C[C@@H]3CC[C@H]([C@H](O)c4ccccc4)N3)ccc2n1C` (single isomer, unassigned) [Example 46], the EC50 was 1000 to 3000 nM.
